Data set [1] in a line: Solubility observed in the Vero cell assay wells. Conditions: at a concentration of 100 μg/ml and above; crystals at bottom of well. Type of data set: physicochemical.
Data set [2] deals with V. harveyi wild-type strain (BB120) matured biofilms. Kind of data set: Biofilm disruption by confocal scanning laser microscopy. The note with it: 2, 20, 200 μM (lower than MIC), 18 hours. In kind it is cell-based. The procedure: The biofilm eradication concentration (BEC) for exemplary ABF agents according to embodiments of the present invention was measured as the effect of the tested agent on mature and fully formed biofilm. The effect of TZD10, an exemplary ABF agent according to embodiments of the present invention, on the depth and the density of the biofilm was determined using fluorescent stains analyzed by computer image analysis using confocal scanning laser microscopy (CLSM). Briefly, biofilms were allowed to form in sterile micrtiture dishes as described hereinabove. After washing the formed biofilm, fresh AB medium and an appropriate medium containing TZD10 were added and incubated for additional 18 hours. Bacteria in biofilm were stained with fluorescent dyes to detect the biofilm. The stained biofilms were examined with a Zeiss LSM 410 confocal laser scanning system attached to a Zeiss Axiovert inverted microscope fitted with a 40×/1.3 Plan-Neofluar lens. In each experiment, exciting laser intensity, background level, contrast and electronic zoom size were maintained at the same level. At least 3 random fields for each experiment were chosen and scored from each sample. Biofilm structure was analyzed as a series of horizontal opto-digital sections. […]

For another data set, the system named is Vero cells. Put plainly: Vero cells detachment assay (96-well polystyrene plate, XTT). Type of data set: cell-based. The method, then:
Vero cells (0.1 ml, 1.6×10^6 cells/ml) were plated in each well of flat 96-wells polystyrene plate (Nunc), and incubated overnight at 37° C. and 5% CO2. The cells were then incubated with various concentrations of the exemplary tested ABF agent TZD10. At the indicated time intervals, the cells were washed and re-suspended in fresh medium. XTT (2,3-bis-(2-methoxy-4-nitro-5-sulfophenyl)-2H-tetrazolium-5-carboxanilide) analysis was performed to determine the viability of the attached cells.
For orientation: Tetrazolium dyes change colour on reduction, which living cells bring about.

Data set [3] concerns V. harveyi strains. Put plainly: MIC, broth dilution antibacterial susceptibility test. In kind it is cell-based. The procedure: A series of V. harveyi strains (wild-type and mutants), marine bacteria which are used as a widely accepted model for testing quorum sensing, was used in the experiments below.
MIC was determined according to the CLSI, formerly NCCLS (National Committee for Clinical Laboratory Standards) recommendation for broth dilution antibacterial susceptibility test.
All the tested V. harveyi strains (adjusted to 0.5 MacFarlane standard suspension) were grown at 30° C., in the presence of the tested agent at concentrations ranging from 2 μM to 10 mM, in 96-well transparent micro-titration plates (NUNC, Denmark).
After 18 hours of incubation, bacterial growth was determined according to the density measured by absorbance at 595 nm (GENios reader TECAN-Austria).
Each experiment was conducted in triplicate samples and repeated three times. Based on MIC results, the exemplary anti-biofilm forming agent with the highest MIC values (lowest antibacterial activity) was selected for the anti-quorum sensing activity screening assay.
(In general: Dilution methods test growth across graded concentrations, often in twofold steps.)

The test system of data set [4] is V. harveyi strains. Kind of data set: Quorum sensing inhibition (luminescence), planktonic conditions. Type of data set: cell-based. Conditions: BB120, BB170, BB886, BB721, JAF375, with AI-1, AI-2 or AI-0 spent medium. The procedure: Mutant strains of V. harveyi, which are impaired at different locations of the quorum sensing (QS) cascade (see, Table 1 hereinabove) were used for the QSI assays. Bacteria were grown to cell density of 1.5-2.5×10^9 CFU/ml (15-16 hours) in AB medium at 30° C. with constant shaking. The fresh cultures were then diluted 5000-fold in fresh AB medium containing TZD10, an exemplary ABF agent according to embodiments of the present invention, at concentrations of 0.02, 0.2, 20 and 200 μM. […]
The assay was conducted in white 96-well microtitraton plates with a clear bottom (NUNC, Denmark). Luminescence was measured continuously by a GENios reader (TECAN, Austria) every 30 minutes and the bacterial density was determined (O.D. 595 nm).
Each sample was tested in three separate biological experiments, each conducted in triplicate samples. The effect of the ABF agent was determined relatively to the endogenous level of luminescence expressed by V. harveyi BB120, BB721, BB170, BB886 and JAF375 relative to the OD, by calculating the area under the curve (AUC) between 3.5-7 hours, applying the trapezoid rule for AUC calculation.

As usually defined, the MIC is the least concentration at which growth counts as inhibited. Low readings indicate inhibition by little substance, high ones a need for much substance. Take `CCCCCCCCC/C=C1\SC(=O)NC1=O` [TZD10, (Z)-5-decylidenethiazolidine-2,4-dione]: in data set [1], the solubility entry is given as “not completely soluble”. Also, the biofilm disruption entry in data set [2] is on record as “dose response effect of biofilm disruption”. Moreover, the “cell viability after detachment assay” value in the data set with Vero cells (50 μg/ml, overnight incubation) was “most of the cells are still viable”. Also, the cell detachment entry was “most of the cells were detached” in the data set on Vero cells (100 μg/ml, 30 minutes) and “most of the cells were detached” in the data set with Vero cells (200 μg/ml, 5 minutes). The antibacterial activity entry in the data set on V. harveyi strains [3] (V. harveyi mutants and wild-type) was “lack of antibacterial activity per se”. For the same compound, the minimal inhibitory concentration (MIC) is less than 10 mM against V. harveyi strains [3] (Vibrio harveyi); less than 10 mM in the data set on V. harveyi strains [3] (strain BB120 (wild-type)); less than 10 mM against V. harveyi strains [3] (strain BB170 (sensor 1-, sensor 2+)); less than 10 mM against V. harveyi strains [3] (strain BB721 (LuxO null)); less than 10 mM in the data set with V. harveyi strains [3] (strain BB886 (sensor 1+, sensor 2-)). For the same compound, in the data set on V. harveyi strains [4], the “effect on quorum sensing (luminescence)” value is recorded as “classic dose-response curve”.

These data come from patent publication US8865909B2, “Anti-biofilm agents” (Yissum Research Development Company of the Hebrew …, priority 2008, dated 2014).
